Legend:
S-type amylase = target: T1, S-type amylase (Homo sapiens, UniProt P0DUB6); assay: S-type amylase activity assay of serum by subtraction (reagent F minus reagent G); type: biochemical; conditions: for S-type amylase activity value: change in absorbance with reagent F minus reagent G; for Blank, change in absorbance per minute: distilled water as sample, compositions F and G
T1 construct: Serum (1, 2 or 3); from tissue; host or cells: serum
T1 sequence (P0DUB6 16-511): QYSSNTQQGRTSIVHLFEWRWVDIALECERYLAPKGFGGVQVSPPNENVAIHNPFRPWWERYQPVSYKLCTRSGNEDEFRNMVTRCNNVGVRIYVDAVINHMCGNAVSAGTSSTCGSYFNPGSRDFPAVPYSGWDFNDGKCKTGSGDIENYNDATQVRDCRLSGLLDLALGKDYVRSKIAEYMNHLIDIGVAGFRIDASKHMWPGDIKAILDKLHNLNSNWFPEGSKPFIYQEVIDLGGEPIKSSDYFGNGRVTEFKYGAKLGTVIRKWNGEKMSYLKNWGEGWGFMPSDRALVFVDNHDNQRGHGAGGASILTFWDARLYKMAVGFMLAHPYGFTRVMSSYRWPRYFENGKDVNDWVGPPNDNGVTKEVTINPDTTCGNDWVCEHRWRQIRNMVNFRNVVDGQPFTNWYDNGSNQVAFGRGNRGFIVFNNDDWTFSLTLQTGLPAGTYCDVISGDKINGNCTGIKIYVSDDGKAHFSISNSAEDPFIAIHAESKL
Experimental: Potassium thiocyanate 140 mM
(§1) Substrate (GalG2CNP (Example) or G3CNP (Comparative Example)) 2.6 mM
S-type amylase inhibitory antibody 88E8 (manufactured by Roche Diagnostics K.K.) 15 mg/L
S-type amylase inhibitory antibody 66C7 (manufactured by Roche Diagnostics K.K.) 1.25 mg/L
(1) Distilled Water(Blank)
Each of the above-mentioned reagents (0.05 mL) was added to the above reagent F (3 mL) and the mixtures were left standing at 37° C. for 3 minutes. Then, change in absorbance at 405 nm was assayed and change in absorbance per minute was calculated (change in absorbance a). The same procedure was repeated using reagent G and change in absorbance per minute was calculated (change in absorbance b). Then, change in absorbance b was subtracted from change in absorbance a to give change in absorbance c, which was converted to S-type amylase activity value at this composition using the molecular extinction coefficient of CNP.

[1] = target: T2, S-type amylase (Calibzyme S) (Homo sapiens, UniProt P0DUB6); assay: amylase isozyme activity assay with sodium azide as activator, S-type amylase sample; type: biochemical; conditions: for Change in absorbance, Containing Antibody (Composition C) / Change in absorbance, Without antibody (Composition D) / Relative sensitivity / Percent residual enzyme activity: S-type amylase; for Relative sensitivity: G3CNP at 300 mM = 100; for Percent residual enzyme activity: composition C/D; for percent inhibition of S-type amylase: irrespective of sodium azide concentrations, FIG. 4 and FIG. 5
T2 construct: purchased International Reagents Corporation Calibzyme S
T2 sequence (P0DUB6 16-511): T1 sequence (P0DUB6 16-511)
Experimental: S-type amylase inhibitory antibody 88E8 (manufactured by Roche Diagnostics K.K.) 20 mg/L
S-type amylase inhibitory antibody 66C7 (manufactured by Roche Diagnostics K.K.) 5 mg/L
as §1
(3) S-type Amylase (Calibzyme S, Manufactured by International Reagents Corporation)
Each of the above-mentioned samples (0.05 mL) was added to respective reagent C and D (3 mL) and the mixtures were left standing at 37° C. for 3 minutes. Then, change in absorbance at 405 nm was assayed and change in absorbance per minute was calculated.
In the Tables, P is the case where P-type amylase was used as the sample, and S is the case where S-type amylase was used. The relative sensitivity of P and S is based on the change in absorbance of G3CNP as 100, wherein sodium azide was 300 mM.
Percent residual enzyme activity and relative sensitivity were calculated by the following formulas.
Percent residual enzyme activity (%)=(change in absorbance of composition C)/(change in absorbance of composition D)×100
Relative sensitivity (%)=(change in absorbance of composition D)/(change in absorbance of Comparative Example wherein sodium azide was 300 mM)×100

## O=[N+]([O-])c1ccc(O[C@H]2O[C@H](CO)[C@@H](O[C@H]3O[C@H](CO)[C@@H](O[C@H]4O[C@H](CO)[C@@H](O)[C@H](O)[C@H]4O)[C@H](O)[C@H]3O)[C@H](O)[C@H]2O)c(Cl)c1 [Example G3CNP, 2-chloro-4-nitrophenylmaltotrioside, reference compound]
S-type amylase; Serum 1
  S-type amylase activity value: 23.4 IU/L
S-type amylase; Serum 2
  S-type amylase activity value: 87.5 IU/L
S-type amylase; Serum 3
  S-type amylase activity value: 71.9 IU/L
S-type amylase
  Blank, change in absorbance per minute: 0.0006 ABS/min
[1]; sodium azide 0 mM
  Change in absorbance, Containing Antibody (Composition C): 0.3 mABS/min
  Change in absorbance, Without antibody (Composition D): 4.7 mABS/min
  Relative sensitivity: 10.2%
  Percent residual enzyme activity: 6.4%
[1]; sodium azide 30 mM
  Change in absorbance, Containing Antibody (Composition C): 0.9 mABS/min
  Change in absorbance, Without antibody (Composition D): 15.7 mABS/min
  Relative sensitivity: 34.2%
  Percent residual enzyme activity: 5.7%
[1]; sodium azide 60 mM
  Change in absorbance, Containing Antibody (Composition C): 1.0 mABS/min
  Change in absorbance, Without antibody (Composition D): 22.4 mABS/min
  Relative sensitivity: 48.8%
  Percent residual enzyme activity: 4.5%
[1]; sodium azide 90 mM
  Change in absorbance, Containing Antibody (Composition C): 1.6 mABS/min
  Change in absorbance, Without antibody (Composition D): 28.6 mABS/min
  Relative sensitivity: 62.3%
  Percent residual enzyme activity: 5.6%
[1]; sodium azide 120 mM
  Change in absorbance, Containing Antibody (Composition C): 1.5 mABS/min
  Change in absorbance, Without antibody (Composition D): 31.0 mABS/min
  Relative sensitivity: 67.5%
  Percent residual enzyme activity: 4.8%
[1]; sodium azide 150 mM
  Change in absorbance, Containing Antibody (Composition C): 1.6 mABS/min
  Change in absorbance, Without antibody (Composition D): 35.8 mABS/min
  Relative sensitivity: 78.0%
  Percent residual enzyme activity: 4.5%
[1]; sodium azide 200 mM
  Change in absorbance, Containing Antibody (Composition C): 1.9 mABS/min
  Change in absorbance, Without antibody (Composition D): 41.1 mABS/min
  Relative sensitivity: 89.5%
  Percent residual enzyme activity: 4.6%
[1]; sodium azide 250 mM
  Change in absorbance, Containing Antibody (Composition C): 2.2 mABS/min
  Change in absorbance, Without antibody (Composition D): 44.5 mABS/min
  Relative sensitivity: 96.9%
  Percent residual enzyme activity: 4.9%
[1]; sodium azide 300 mM
  Change in absorbance, Containing Antibody (Composition C): 2.3 mABS/min
  Change in absorbance, Without antibody (Composition D): 45.9 mABS/min
  Relative sensitivity: 100.0%
  Percent residual enzyme activity: 5.0%
[1]
  percent inhibition of S-type amylase: around 95%

## O=[N+]([O-])c1ccc(O[C@H]2O[C@H](CO)[C@@H](O[C@H]3O[C@H](CO)[C@@H](O[C@@H]4O[C@H](CO)[C@H](O)[C@H](O)[C@H]4O)[C@H](O)[C@H]3O)[C@H](O)[C@H]2O)c(Cl)c1 [GalG2CNP, 2-chloro-4-nitrophenyl 4-O-β-D-galactopyranosylmaltoside]
S-type amylase; Serum 1
  S-type amylase activity value: 44.8 IU/L
S-type amylase; Serum 2
  S-type amylase activity value: 167.7 IU/L
S-type amylase; Serum 3
  S-type amylase activity value: 140.7 IU/L
S-type amylase; Table 6, serum samples
  sensitivity (change in absorbance) compared with Comparative Example: superior sensitivity
S-type amylase
  Blank, change in absorbance per minute: 0.0003 ABS/min
[1]; sodium azide 0 mM
  Change in absorbance, Containing Antibody (Composition C): 0.8 mABS/min
  Change in absorbance, Without antibody (Composition D): 14.6 mABS/min
  Relative sensitivity: 31.8%
  Percent residual enzyme activity: 5.5%
[1]; sodium azide 30 mM
  Change in absorbance, Containing Antibody (Composition C): 1.6 mABS/min
  Change in absorbance, Without antibody (Composition D): 33.2 mABS/min
  Relative sensitivity: 72.3%
  Percent residual enzyme activity: 4.8%
[1]; sodium azide 60 mM
  Change in absorbance, Containing Antibody (Composition C): 2.0 mABS/min
  Change in absorbance, Without antibody (Composition D): 43.8 mABS/min
  Relative sensitivity: 95.4%
  Percent residual enzyme activity: 4.6%
[1]; sodium azide 90 mM
  Change in absorbance, Containing Antibody (Composition C): 2.4 mABS/min
  Change in absorbance, Without antibody (Composition D): 49.6 mABS/min
  Relative sensitivity: 108.1%
  Percent residual enzyme activity: 4.8%
[1]; sodium azide 120 mM
  Change in absorbance, Containing Antibody (Composition C): 2.6 mABS/min
  Change in absorbance, Without antibody (Composition D): 53.1 mABS/min
  Relative sensitivity: 115.7%
  Percent residual enzyme activity: 4.9%
[1]; sodium azide 150 mM
  Change in absorbance, Containing Antibody (Composition C): 2.4 mABS/min
  Change in absorbance, Without antibody (Composition D): 57.8 mABS/min
  Relative sensitivity: 125.9%
  Percent residual enzyme activity: 4.2%
[1]; sodium azide 200 mM
  Change in absorbance, Containing Antibody (Composition C): 2.6 mABS/min
  Change in absorbance, Without antibody (Composition D): 61.1 mABS/min
  Relative sensitivity: 133.1%
  Percent residual enzyme activity: 4.3%
[1]; sodium azide 250 mM
  Change in absorbance, Containing Antibody (Composition C): 2.5 mABS/min
  Change in absorbance, Without antibody (Composition D): 67.3 mABS/min
  Relative sensitivity: 146.6%
  Percent residual enzyme activity: 3.7%
[1]; sodium azide 300 mM
  Change in absorbance, Containing Antibody (Composition C): 2.6 mABS/min
  Change in absorbance, Without antibody (Composition D): 66.8 mABS/min
  Relative sensitivity: 145.5%
  Percent residual enzyme activity: 3.9%
[1]
  percent inhibition of S-type amylase: around 95%
